These results are taken from US20180263909A1, “DUAL LOADED LIPOSOMAL NANOPARTICLES” (priority 2015, published 2018).

Structures are written as SMILES.

The test system of one data set is MM.1S cells. The data set is described as follows: Cytotoxicity (Cell Counting Kit-8) and Chou-Talalay synergy analysis, MM.1S. Type of data set: cell-based. The settings on record: 25 nM of each drug, 48 h.
Another data set has as its system NCI-H929 cells. The settings on record: 25 nM of each drug, 48 h.

Experimental for MM.1S cells: (§1) Cytotoxicity and Synergy Analysis. 2×10^5 cells/well were plated in a 96-well dish 16 h prior to the experiment. Cells were treated with respective cytotoxic agents at varying concentrations. Cytotoxicity was assessed at 48 h using Cell Counting Kit-8 Reagent (Dojindo Molecular Technologies, Rockville, Mass.).
Experimental for NCI-H929 cells: as §1

Regarding `CC(C)C[C@H](NC(=O)[C@H](CCc1ccccc1)NC(=O)CN1CCOCC1)C(=O)N[C@@H](Cc1ccccc1)C(=O)N[C@@H](CC(C)C)C(=O)[C@@]1(C)CO1` [carfilzomib], the cytotoxicity result in the data set with MM.1S cells and with NCI-H929 cells was “minimal cytotoxicity” each time.
